# Experimental data: the supplement of paper PMC10307832
# Assays:
# Assay in all cases: relative viability (nuclei count vs DMSO), 5 days (fraction); higher = more cells survive
# [1] = compound: Cc1ccccc1C(C(=O)NC1CCCCC1)N(C(=O)Cn1ccnc1C)c1cccc(F)c1 [IDH-C35] + Cc1nc(Nc2ncc(C(=O)Nc3c(C)cccc3Cl)s2)cc(N2CCN(CCO)CC2)n1 [Dasatinib] (partner 0.075 µM)
# How it was run: (§1)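 Each reported value is a median over duplicate plates. It expresses relative viability: treated-well nuclei count divided by vehicle-well nuclei count. Lung cancer cell lines in 1536-well plates were dosed by pin tool a day after seeding, alone with one drug or with a fixed anchor-drug dose plus five library-drug doses (not always all listed) in √10 steps, and nuclei were counted after 5 days.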
# [2] = compound: CC1=C(C(=NN1)C)CC2=C(C3=C(S2)N(C(=O)N(C3=O)C)CC(C)C)C(=O)N4C[C@@H](CO4)O + C[C@@H](Oc1cc(-c2cnn(C3CCNCC3)c2)cnc1N)c1c(Cl)ccc(F)c1Cl [Crizotinib] (partner 1 µM)
# How it was run: as §1
# [3] = compound: Cc1ccccc1C(C(=O)NC1CCCCC1)N(C(=O)Cn1ccnc1C)c1cccc(F)c1 [IDH-C35] + CCNC(=O)c1noc(-c2cc(C(C)C)c(O)cc2O)c1-c1ccc(CN2CCOCC2)cc1 [Luminespib] (partner 0.01 µM)
# How it was run: as §1
# [4] = compound: Cc1ccccc1C(C(=O)NC1CCCCC1)N(C(=O)Cn1ccnc1C)c1cccc(F)c1 [IDH-C35] + CC1(C)CCC(c2ccc(Cl)cc2)=C(CN2CCN(c3ccc(C(=O)NS(=O)(=O)c4ccc(N[C@H](CCN5CCOCC5)CSc5ccccc5)c(S(=O)(=O)C(F)(F)F)c4)cc3)CC2)C1 [Navitoclax] (partner 0.5 µM)
# How it was run: as §1
Cell Line,relative viability ([1]; first compound 0.08 µM),relative viability ([1]; first compound 0.253 µM),relative viability ([1]; first compound 0.8 µM),relative viability ([1]; first compound 2.53 µM),relative viability ([1]; first compound 8 µM),relative viability ([2]; first compound 0.0025 µM),relative viability ([2]; first compound 0.007906 µM),relative viability ([2]; first compound 0.025 µM),relative viability ([2]; first compound 0.07906 µM),relative viability ([2]; first compound 0.25 µM),relative viability ([3]; first compound 0.08 µM),relative viability ([3]; first compound 0.253 µM),relative viability ([3]; first compound 0.8 µM),relative viability ([3]; first compound 2.53 µM),relative viability ([3]; first compound 8 µM),relative viability ([4]; first compound 0.08 µM),relative viability ([4]; first compound 0.253 µM),relative viability ([4]; first compound 0.8 µM),relative viability ([4]; first compound 2.53 µM),relative viability ([4]; first compound 8 µM)
201T,0.575,0.569,0.607,0.582,0.529,1.06,0.978,1.03,1.06,1.05,1.05,1.07,1.02,1.04,1.01,1.18,1.19,1.19,1.17,1.19
A549,–,–,–,–,–,0.763,0.805,0.663,0.858,1.07,–,–,–,–,–,1.19,1.16,1.17,1.22,1.15
A-427,0.738,0.636,0.685,0.702,0.658,0.904,0.953,0.879,0.917,1.13,0.914,0.892,0.785,0.87,0.852,0.975,0.975,0.904,0.949,0.952
ABC-1,0.583,0.58,0.485,0.476,0.631,1.24,0.905,1.01,0.956,0.992,0.598,–,0.688,0.805,0.818,–,–,–,–,–
BEN,0.308,0.373,0.289,0.333,0.293,0.912,0.719,0.75,0.604,0.847,0.373,0.391,0.311,0.425,0.333,0.0634,0.062,0.0706,0.0643,0.0666
CAL-12T,0.39,0.613,0.411,0.496,0.396,0.76,0.724,0.558,0.667,0.817,0.498,0.314,0.36,0.188,0.363,1.32,1.19,1.06,1.36,1.09
COR-L23,0.479,0.438,0.48,0.443,0.445,0.679,0.56,0.445,0.403,0.386,0.789,0.656,0.664,0.641,0.679,1.17,0.907,0.977,0.979,1.05
COR-L 105,0.394,0.394,0.403,0.323,0.349,0.969,0.738,0.668,0.748,0.771,0.722,0.951,0.715,0.819,0.742,1.01,1.04,0.64,0.899,0.569
Calu-6,–,–,–,–,–,0.741,0.691,0.808,0.746,1,–,–,–,–,–,0.838,0.765,0.997,0.968,0.78
ChaGo-K-1,0.64,0.615,0.598,0.63,0.601,1.13,0.876,–,1.09,1.25,0.733,0.625,0.623,0.697,0.67,0.62,0.966,1.09,0.73,1.17
EBC-1,–,–,–,–,–,0.219,0.182,0.191,0.214,0.184,–,–,–,–,–,0.364,0.503,0.52,0.359,0.203
EKVX,0.568,0.53,0.57,0.494,0.61,1.09,1.11,0.988,0.962,0.992,0.93,0.908,0.822,0.842,0.845,1.17,0.911,0.899,1.01,0.897
EMC-BAC-2,0.355,0.346,0.348,0.298,0.281,0.806,0.866,0.753,0.788,0.866,1.18,1.18,1.18,1.14,1.14,1.13,1.12,1.15,1.12,1.14
EPLC-272H,0.432,0.357,0.506,0.653,0.323,0.821,0.863,0.904,0.773,1.1,0.262,0.265,0.605,0.351,0.428,1.27,1.13,1.13,–,1.07
H3255,0.406,0.415,0.306,0.453,0.331,0.924,0.902,0.817,0.816,0.926,0.845,0.998,0.734,1.03,0.882,0.577,0.543,0.495,0.606,0.636
HARA,0.298,0.271,0.294,–,0.328,1.09,1.19,0.915,0.987,1.04,0.783,0.761,0.637,–,0.617,1.08,1.14,1.14,1.12,1.14
HCC-15,0.542,0.639,0.599,–,0.59,0.826,0.71,0.781,0.757,0.947,0.246,0.251,0.178,–,0.314,0.69,0.692,0.708,0.632,0.606
HCC-44,–,–,–,–,–,0.765,0.843,0.88,0.811,0.929,1.06,1.06,0.986,1.04,1.05,0.927,1.02,1.02,0.953,0.952
